# Results: ChEMBL document CHEMBL1127261, “3-Substituted 6-butyl-1,2-dihydropyridin-2-ones: A new series of potent nonpeptide angiotensin II receptor antagonists” (Bioorg Med Chem Lett, 1994)
# How the values were obtained:
# Rattus norvegicus = assay: In vivo percent inhibition of AII induced increase in diastolic blood pressure in pithed rats at a dose of 3 mg/kg, i.d.; assay type: functional; conditions: Artery, route intraduodenal
# Oryctolagus cuniculus = organism: Oryctolagus cuniculus; assay: In vitro functional antagonism in isolated rabbit aortic rings precontracted by AII; conditions: Aorta
# [1] = target: T1, Angiotensin II receptor (AT-1) type-1 (Rattus norvegicus, UniProt P29089+P25095); assay: In vitro binding affinity to angiotensin II receptor, type 1 in rat adrenal cortex preparation; assay type: tissue-based
# T1 sequence (P29089 whole entry): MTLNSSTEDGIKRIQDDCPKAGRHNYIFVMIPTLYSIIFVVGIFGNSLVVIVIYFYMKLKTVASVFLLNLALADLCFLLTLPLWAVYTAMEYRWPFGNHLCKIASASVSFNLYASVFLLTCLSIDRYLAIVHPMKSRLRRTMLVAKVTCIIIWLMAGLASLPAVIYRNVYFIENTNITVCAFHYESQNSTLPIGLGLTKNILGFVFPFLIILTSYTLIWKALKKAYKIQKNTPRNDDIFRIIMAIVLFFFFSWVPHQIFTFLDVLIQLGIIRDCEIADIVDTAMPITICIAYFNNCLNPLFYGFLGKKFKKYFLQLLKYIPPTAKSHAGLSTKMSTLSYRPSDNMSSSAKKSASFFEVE
# T1 sequence (P25095 whole entry): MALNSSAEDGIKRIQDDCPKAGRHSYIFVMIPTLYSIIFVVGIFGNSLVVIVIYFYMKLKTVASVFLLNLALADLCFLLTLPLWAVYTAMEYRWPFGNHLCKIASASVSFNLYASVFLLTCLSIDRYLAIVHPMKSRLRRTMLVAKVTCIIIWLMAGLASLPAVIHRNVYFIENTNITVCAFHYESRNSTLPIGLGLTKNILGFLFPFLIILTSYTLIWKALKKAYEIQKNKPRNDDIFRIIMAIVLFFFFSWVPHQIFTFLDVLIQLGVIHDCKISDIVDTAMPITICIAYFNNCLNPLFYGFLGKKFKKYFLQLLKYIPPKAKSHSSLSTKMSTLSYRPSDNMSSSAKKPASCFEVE
SMILES,IC50 (Oryctolagus cuniculus) [nM],IC50 [1] [nM],inhibition in vivo at 3 mg/kg (Rattus norvegicus) [%]
CCCCc1ccc(CNS(=O)(=O)c2ccccc2)c(=O)n1Cc1ccc(-c2ccccc2-c2nn[nH]n2)cc1,7,4.1,25.2
CCCCc1ccc(CNS(=O)(=O)c2ccc(C)cc2)c(=O)n1Cc1ccc(-c2ccccc2-c2nn[nH]n2)cc1,9,3.3,–
CCCCc1ccc(CN(C)S(C)(=O)=O)c(=O)n1Cc1ccc(-c2ccccc2-c2nn[nH]n2)cc1,0.2,1.2,83.4
CCCCc1ccc(CN(C)C(=O)N(C)C)c(=O)n1Cc1ccc(-c2ccccc2-c2nn[nH]n2)cc1,–,13,–
CCCCNC(=O)NCc1ccc(CCCC)n(Cc2ccc(-c3ccccc3-c3nn[nH]n3)cc2)c1=O,10,9,10.3
CCCCc1ccc(CN(Cc2ccccc2)S(C)(=O)=O)c(=O)n1Cc1ccc(-c2ccccc2-c2nn[nH]n2)cc1,2,3.8,41.2
CCCCc1ccc(CNC(=O)N(CC)CC)c(=O)n1Cc1ccc(-c2ccccc2-c2nn[nH]n2)cc1,–,6.5,–
CCCCc1ccc(CNC(=O)N(C)C)c(=O)n1Cc1ccc(-c2ccccc2-c2nn[nH]n2)cc1,2,2.9,28
CCCCc1ccc(CN(C)S(=O)(=O)c2ccc(C)cc2)c(=O)n1Cc1ccc(-c2ccccc2-c2nn[nH]n2)cc1,8,4.2,–
CCCCc1ccc(CN(Cc2ccccc2)S(=O)(=O)c2ccc(C)cc2)c(=O)n1Cc1ccc(-c2ccccc2-c2nn[nH]n2)cc1,60,16.5,36.6
CCCCc1ccc(C)c(=O)n1Cc1ccc(-c2ccccc2-c2nn[nH]n2)cc1,7,6.1,–
CCCCc1ccc(CN(Cc2ccccc2)S(=O)(=O)c2ccccc2)c(=O)n1Cc1ccc(-c2ccccc2-c2nn[nH]n2)cc1,20,12,75.7
CCCCc1ccc(CN(C(C)C)S(C)(=O)=O)c(=O)n1Cc1ccc(-c2ccccc2-c2nn[nH]n2)cc1,0.9,1.9,82.7
CCCCc1nc(Cl)c(CO)n1Cc1ccc(-c2ccccc2-c2nn[nH]n2)cc1,3,–,73.6
CCCCc1cccc(=O)n1Cc1ccc(-c2ccccc2-c2nn[nH]n2)cc1,4,18,–
CCCCc1ccc(CN(CC)S(C)(=O)=O)c(=O)n1Cc1ccc(-c2ccccc2-c2nn[nH]n2)cc1,2,3.5,–

# The next lines start with results.
IC50 (Oryctolagus cuniculus) [nM],IC50 [1] [nM],SMILES,inhibition in vivo at 3 mg/kg (Rattus norvegicus) [%]
3,3.8,CCCCc1ccc(CNC(C)=O)c(=O)n1Cc1ccc(-c2ccccc2-c2nn[nH]n2)cc1,8.6
2,2.2,CCCCc1ccc(CNS(C)(=O)=O)c(=O)n1Cc1ccc(-c2ccccc2-c2nn[nH]n2)cc1,54.8
2,4.2,CCCCc1ccc(CN(C)S(=O)(=O)c2ccccc2)c(=O)n1Cc1ccc(-c2ccccc2-c2nn[nH]n2)cc1,68.7
1,1.5,CCCCc1ccc(CNCc2ccccc2)c(=O)n1Cc1ccc(-c2ccccc2-c2nn[nH]n2)cc1,12.4
–,18,CCCCc1ccc(C#N)c(=O)n1Cc1ccc(-c2ccccc2-c2nn[nH]n2)cc1,–
–,4.1,CCCCc1ccc(CNC(=O)Cc2ccccc2)c(=O)n1Cc1ccc(-c2ccccc2-c2nn[nH]n2)cc1,–
10,6,CCCCc1ccc(CNC(=O)OC(C)(C)C)c(=O)n1Cc1ccc(-c2ccccc2-c2nn[nH]n2)cc1,68.9
–,22,CCCCc1ccc(CNS(=O)(=O)C(F)(F)F)c(=O)n1Cc1ccc(-c2ccccc2-c2nn[nH]n2)cc1,–
–,5.7,CCCCc1ccc(CNC(=O)CCC)c(=O)n1Cc1ccc(-c2ccccc2-c2nn[nH]n2)cc1,–
20,19,CCCCc1ccc(CN)c(=O)n1Cc1ccc(-c2ccccc2-c2nn[nH]n2)cc1,2.8
90,21,CCCCc1ccc(CNC(=O)NC2CCCCC2)c(=O)n1Cc1ccc(-c2ccccc2-c2nn[nH]n2)cc1,0
1,2.8,CCCCc1ccc(CN(Cc2ccccc2)C(C)=O)c(=O)n1Cc1ccc(-c2ccccc2-c2nn[nH]n2)cc1,76.3
30,18,CCCCc1ccc(CNC(=O)Nc2ccccc2)c(=O)n1Cc1ccc(-c2ccccc2-c2nn[nH]n2)cc1,0
–,20,CCCCc1ccc(CN(Cc2ccccc2)C(=O)OC(C)(C)C)c(=O)n1Cc1ccc(-c2ccccc2-c2nn[nH]n2)cc1,–
